Measured values reported in patent US12091417B2, “7-ethyl-10-hydroxycamptothecin derivatives for use in the treatment of cancer” (Narodowy Instytut Lekow, priority 2020, dated 2024).
Read-outs that look alike come from different tables or passages of the source.

What was measured:
MCF7 = assay: MTT cell proliferation test, cytotoxicity on MCF7 breast cancer cells; format: cell-based, human; conditions: MCF7, 72 hrs incubation, read-out: IC50 μmole/L, after 72 hrs incubation time
Protocol: (§1) IC50 Determination Using the Photometric Assay.
(§2) All cell lines, MCF7, HT29, HL60, A549 and CRL1790 were purchased from ATCC (American Cell Culture Collection). As exemplified the MCF-7 human breast cancer, the cell line was grown in Iscove's Modified Dulbecco's Medium, supplemented with 10% heat-inactivated fetal bovine serum, penicillin (100 Ul/mL), streptomycin (100 μg/mL), amphotericin (250 ng/mL), L-glutamine (2 mM) and 1% non-essential amino acids solution. The culture of HL-60 human leukemia cells was conducted in Iscove's Modified Dulbecco's Medium, supplemented with 20% heat-inactivated fetal bovine serum, penicillin (100 Ul/mL), streptomycin (100 μg/mL), amphotericin (250 ng/mL), L-glutamine (2 mM) and 1% non-essential amino acids solution.
(§3) The cells were grown at 37° C. in a humidified atmosphere containing 5% CO2. After 80% confluence was reached, the adherent MCF7, HL-60, cells were detached with a 0.25% trypsin solution and seeded in 96-well plates at a density of 5×10^4 cells/mL, 5×10^5 cells/mL, respectively.
(§4) After overnight incubation, the increasing concentrations (0.1-20 μM) of studied compounds dissolved in DMSO were added to the wells. Pure DMSO diluted at the ratio of 1:1000 (v/v) in growth media was added to control wells. After 24, 48 or 72 hours of incubation the MTT-cell proliferation test was performed.
(§5) The test exploits the ability of living cells mitochondrial dehydrogenases to convert water-soluble 3-(4,5-dimethylthiazol-2-yl)-2,5-diphenyltetrazolium bromide (MTT) to non-soluble formazan. Briefly, after 3 hours incubation of cells with MTT solution the absorbance of formazan dissolved in isopropyl alcohol was measured in a Power Wavex microplate spectrophotometer (BioTek Instruments) at 570 nm.
(§6) In order to compare the cytotoxicity of studied compounds the IC50 values (the concentrations which induce the cell viability decreased to 50% of the control) were determined. The normalized MTT data were fitted to log(inhibitor) vs. response-variable slope model (R^2>0.9) described by the Equation 1 using Prism 5 ver 5.03 (GraphPad Software, Inc):
(§7) [formula] where: V—cell viability, c—compound concentration, h—Hill coefficient.
(§8) As a result log IC50 with the standard error were calculated.

HT29 = assay: MTT cell proliferation test, cytotoxicity on HT29 colon cancer cells; format: cell-based; conditions: HT29, 72 hrs incubation, read-out: IC50 μmole/L, after 72 hrs incubation time
Protocol: as §1, §2, §3, §4, §5, §6, §7, §8

HL60 = assay: MTT cell proliferation test, cytotoxicity on HL60 leukemia cells; format: cell-based, human
Protocol: as §1, §2, §3, §4, §5, §6, §7, §8

A549 = assay: MTT cell proliferation test, cytotoxicity on A549 lung cancer cells; format: cell-based; conditions: A549, 72 hrs incubation, read-out: IC50 μmole/L, after 72 hrs incubation time
Protocol: as §1, §2, §3, §4, §5, §6, §7, §8

CRL1790 = assay: MTT cell proliferation test, cytotoxicity on CRL1790 normal cells; format: cell-based; conditions: CRL1790, 72 hrs incubation, read-out: IC50 μmole/L, after 72 hrs incubation time
Protocol: as §1, §2, §3
[…] Pure DMSO diluted at the ratio of 1:1000 (v/v) in growth media was added to control wells. After 24, 48 or 72 hours of incubation the MTT-cell proliferation test was performed.
as §5
as §6, with “Inc): […]” for “Inc):”
as §8

[1] = Blood, HL60, 72 hrs incubation, MTT, read-out: IC50 μmole/L, after 72 hrs incubation time

Question: Which IC50 (MCF7) does the source give for CCc1c2c(nc3ccc(O)c(CN4CCCC4)c13)-c1cc3c(c(=O)n1C2)COC(=O)C3(O)CC (centres unmarked) [CC2, (N-pyrrolidinyl)methyl-7-ethyl-10-hydroxycamptothecin, reference compound] here?
Answer: 1.43 µmol/L

Question: What about the IC50 (HT29) of the same compound?
Answer: 0.24 µmol/L

Question: What about the IC50 (HL60; no unit or cell line printed, values match the HL60 line of Table 1, read-out: IC50) of the same compound?
Answer: 0.014 µmol/L

Question: And the IC50 (A549)?
Answer: 0.083 µmol/L

Question: Which results are given for CCc1c2c(nc3ccc(O)c(CN4CCC4)c13)-c1cc3c(c(=O)n1[C@@H]2CO)COC(=O)[C@]3(O)CC [Compound 7, 5-(S)-hydroxymethyl-7-ethyl-9-(N-azetidinyl)methyl-10-hydroxycamptothecin]?
Answer: IC50 (MCF7): 6.7 µmol/L; IC50 (HT29): 2.5 µmol/L; IC50 (HL60; [1]): 0.11 µmol/L; IC50 (A549): 1.17 µmol/L; IC50 (CRL1790): > 1000 µmol/L

Question: What does the source list for CCc1c2c(nc3ccc(O)c(CN4CCC4)c13)-c1cc3c(c(=O)n1[C@H]2CO)COC(=O)C3(O)CC (stereo partly drawn) [Compound 6, 5-(R)-hydroxymethyl-7-ethyl-9-(N-azetidinyl)methyl-10-hydroxycamptothecin]?
Answer: IC50 (MCF7): 11.1 µmol/L; IC50 (HT29): 6.98 µmol/L; IC50 (HL60; [1]): 0.33 µmol/L; IC50 (A549): 5.22 µmol/L; IC50 (CRL1790): > 1000 µmol/L

Question: Which results are given for C=c1c2c(CC)c3cc(O)ccc3nc2c2cc3c(c(=O)n12)COC(=O)C3(O)CC (centres unmarked) [Compound 5, 5-methylidene-7-ethyl-10-hydroxycamptothecin]?
Answer: IC50 (HT29): 0.15 µmol/L; IC50 (A549): 1.94 µmol/L

Question: CCc1c2c(nc3ccc(O)cc13)-c1cc3c(c(=O)n1C2)COC(=O)[C@]3(O)CC [SN38, 7-ethyl-10-hydroxycamptothecin] was tested. Which IC50 (MCF7) did it give?
Answer: 0.66 µmol/L

Question: And the IC50 (HT29)?
Answer: 0.02 µmol/L

Question: And the IC50 (HL60; [1])?
Answer: 0.002 µmol/L

Question: What about the IC50 (A549) of the same compound?
Answer: 0.028 µmol/L

Question: What about the IC50 (CRL1790) of the same compound?
Answer: 4.98 µmol/L

Question: Which IC50 (MCF7) does the source give for CCc1c2c(nc3ccc(O)c(CN4CCC4)c13)-c1cc3c(c(=O)n1C2)COC(=O)C3(O)CC (centres unmarked) [CC1, (N-azetidinyl)methyl-7-ethyl-10-hydroxycamptothecin, reference compound] here?
Answer: 0.99 µmol/L

Question: And the IC50 (HT29)?
Answer: 0.07 µmol/L

Question: And the IC50 (HL60; [1])?
Answer: 0.012 µmol/L

Question: What about the IC50 (A549) of the same compound?
Answer: 0.071 µmol/L

Question: With CCc1c2c(nc3ccc(O)cc13)-c1cc3c(c(=O)n1[C@@H]2CN1CCCC1)COC(=O)C3(O)CC (stereo partly drawn) [Compound 2, 5-(S)—(N-pyrrolidinyl)methyl-7-ethyl-10-hydroxycamptothecin] as the compound, how does the IC50 (MCF7) read?
Answer: 0.96 µmol/L

Question: And the IC50 (HT29)?
Answer: 0.49 µmol/L

Question: What about the IC50 (HL60; [1]) of the same compound?
Answer: 0.007 µmol/L

Question: What about the IC50 (A549) of the same compound?
Answer: 0.272 µmol/L

Question: CCc1c2c(nc3ccc(O)cc13)-c1cc3c(c(=O)n1[C@@H]2CO)COC(=O)[C@]3(O)CC [Compound 4, 5-(S)-hydroxymethyl-7-ethyl-10-hydroxycamptothecin] was tested. Which IC50 (MCF7) did it give?
Answer: 14.9 µmol/L

Question: And the IC50 (HT29)?
Answer: 14.8 µmol/L

Question: And the IC50 (HL60; [1])?
Answer: 1.89 µmol/L

Question: What about the IC50 (A549) of the same compound?
Answer: 6.54 µmol/L

Question: Which results are given for CCc1c2c(nc3ccc(O)cc13)-c1cc3c(c(=O)n1[C@H]2CN1CCCC1)COC(=O)[C@]3(O)CC [Compound 1, 5-(R)—(N-pyrrolidinyl)methyl-7-ethyl-10-hydroxycamptothecin]?
Answer: IC50 (MCF7): 0.81 µmol/L; IC50 (HT29): 0.6 µmol/L; IC50 (HL60; [1]): 0.011 µmol/L; IC50 (A549): 0.204 µmol/L

Question: What does the source list for CCc1c2c(nc3ccc(O)cc13)-c1cc3c(c(=O)n1[C@H]2CO)COC(=O)C3(O)CC (stereo partly drawn) [Compound 3, 5-(R)-hydroxymethyl-7-ethyl-10-hydroxycamptothecin]?
Answer: IC50 (MCF7): 15.9 µmol/L; IC50 (HT29): 9.48 µmol/L; IC50 (HL60; [1]): 0.72 µmol/L; IC50 (A549): 4.27 µmol/L
